# Results as given in patent US20240299553A1, “INDOCARBOCYANINE LIPID DERIVATIVES FOR IN VIVO CARGO DELIVERY” (priority 2021, published 2024).
# Key:
# [1] = tested on: syngeneic intracranial GL261 glioma; assay: Confocal microscopy of brain slices of GL261 glioma mice after i.v. dual-labeled liposomes; type: in vivo; conditions: 48 h post-injection, EPC/DSPE-PEG2000 liposomes, 0.2% DiI and 0.2% Cy5-DSPE
# Method: 4T1 cell line was purchased from the ATCC and verified using a sequencing core. GL261 cells were obtained from the National Cancer Institute (NCI), and CT2A cells were a gift from Dr. Tom Seyfried (Boston College). LY2 cells were from Dr. Sana Karam, University of Colorado Anschutz Medical campus. Cells were grown at 37° C. in RPMI 1640 medium containing 10% heat-inactivated fetal bovine serum, 10 mM HEPES, 100 U/ml penicillin, and […] streptomycin (all from Corning Inc. New York, NY, USA). BALB/c mice were bred in-house. Mice of 8-10 weeks of age (females) were implanted with 0.5×10^6 cells into the mammary fat pad (4T1) or subcutaneously in the jaw region (LY2) and used for experiments 1 week later when tumors reached ˜200-300 mm^3. […]
# Nikon Eclipse AR1HD inverted confocal microscope with 405 nm, 488 nm, 561 nm, and 640 nm excitation lasers and corresponding emission filters was used. […] For quantification, multiple random image areas from different slices of the tumor (both periphery and center) were acquired at 512×512 resolution. Images were quantified with Fiji using customized macros. Briefly, 8-bit gray image stacks were thresholded for fluorescence in the Cy3 and Cy5 channels and the percentages of binary (positive) areas were calculated using the “Measure” function. […]
# [2] = Lipid extraction of tumors and organs, dye biodistribution; type: in vivo, mice; conditions: 48 h post-injection
# Method: For extraction using a modified Bligh-Dyer method, 50-100 mg tissue was homogenized as described above, 10 parts of chloroform/methanol (2:1) were added to the homogenate (considering that tissue weight is 1 part), and the samples were mixed at 1400 rpm for 2 h at room temperature on Eppendorf Thermomixer. The tubes were centrifuged at 500 g for 10 min. The organic phase (bottom, approximately 80% of the added amount) was carefully collected, dotted on a PVDF membrane and scanned for DiI and Cy5 fluorescence as described above. Different dilutions of liposomes (standard curve) were scanned together with the samples. The percentage of the injected DiI and Cy5 in the extract was calculated from the standard curve and divided by tissue weight. The fluorescence of control non-injected organs was subtracted from that of injected organs. For TLC analysis, the mobile phase consisted of chloroform: methanol (9:1) with 1% trifluoroacetic acid and the samples were run on TLC Silica Gel 60 F254 plates (EMD Millipore).
# [3] = tested on: 4T1 syngeneic orthotopic breast carcinoma; assay: Confocal microscopy of 4T1 tumor slices after i.v. injection of dual-labeled liposomes; type: in vivo, mice; conditions: 24 h post-injection; EPC/DSPE-PEG2000 liposomes, 0.2 mole % DiI and Cy5-DSPE, i.v.
# Method: Lipids at the following molar ratios: HSPC/Chol/DSPE-PEG2000 (57/38/5) or EPC/DSPE-PEG2000 (95:5) with addition of 0.2% ICL and/or 0.2% FPL were mixed and dried under a nitrogen stream. The dry lipid cake was resuspended in PBS for a total lipid concentration of 20 mM, then incubated at 60° C. for 30 minutes. The solution was then vortexed for 2 minutes and bath sonicated. Liposomes were extruded by a syringe extruder (Avestin, Ottawa, Canada) through Whatman Nucleopore Track-Etch Membranes (200 nm pore size, 15 times). HSPC-based liposomes were extruded at 60° C., EPC-based liposomes were extruded at room temperature. Size and zeta potential were measured at room temperature in the presence of 1% phosphate-buffered saline using Zetasizer Nano (Malvern, UK). Liposomes were stored at 4° C. at a final concentration of 10 mM (total lipid) for a maximum period of 8 weeks before use.
# 4T1 cell line was purchased from the ATCC and verified using a sequencing core. GL261 cells were obtained from the National Cancer Institute (NCI), and CT2A cells were a gift from Dr. Tom Seyfried (Boston College). LY2 cells were from Dr. Sana Karam, University of Colorado Anschutz Medical campus. Cells were grown at 37° C. in RPMI 1640 medium containing 10% heat-inactivated fetal bovine serum, 10 mM HEPES, 100 U/ml penicillin, and […] streptomycin (all from Corning Inc. New York, NY, USA). BALB/c mice were bred in-house. Mice of 8-10 weeks of age (females) were implanted with 0.5×10^6 cells into the mammary fat pad (4T1) or subcutaneously in the jaw region (LY2) and used for experiments 1 week later when tumors reached ˜200-300 mm^3. For brain tumors, C57BL/6 mice (6-8 weeks old) were implanted with a total 1×10^5 GL261 or CT-2A cells per animal using an established protocol. To determine the distribution of liposomes in tumors and organs, liposomes were injected with 50 μl of 10 mM total lipid intravenously. Blood was collected via periorbital plexus using heparin glass capillaries, and the plasma was separated by centrifugation at 500 g for 5 min. In some experiments, mice were preinjected before dissection with 50 μl of FITC-tomato lectin (1 mg/ml) and 50 μl Hoechst 33324 (2 mg/ml) to visualize the vasculature and the nuclei. Mice were sacrificed with carbon dioxide, followed by cardiac perfusion with PBS through the left ventricle.
# Nikon Eclipse AR1HD inverted confocal microscope with 405 nm, 488 nm, 561 nm, and 640 nm excitation lasers and corresponding emission filters was used. For high magnification imaging, liposomes were diluted 1:200 in PBS, mixed with glycerol at 1:1 ratio and 2 μl were placed on slide. For liposomes in plasma, the samples were diluted 1:20 and mixed with glycerol. The preparations in glycerol were spread under a coverslip and imaged under Apo60 or Apo100 Oil objective at 2048×2048 resolution. For tumor imaging, tumors or whole brains were frozen on dry ice and sliced with a blade into 1-2 mm thick slices. The slices were placed on a glass slide and imaged using Plan Apo 10 objective. Channels' voltage and laser intensity were adjusted using the dual labeled liposomes placed on a slide and imaged under the same magnification. These parameters were calibrated before each imaging session using the batch of liposomes used in that experiment. For quantification, multiple random image areas from different slices of the tumor (both periphery and center) were acquired at 512×512 resolution. Images were quantified with Fiji using customized macros. Briefly, 8-bit gray image stacks were thresholded for fluorescence in the Cy3 and Cy5 channels and the percentages of binary (positive) areas were calculated using the “Measure” function. All the data were plotted with Prism version 8.3.0 (GraphPad, San Diego, CA).
compound,measurement,setting,value
CCCCCCCCCCCCCCCCCC(=O)OC[C@H](COP(=O)(O)OCCNC(=O)CCCCCN1C(=CC=CC=CC2=[N+](C)c3ccccc3C2(C)C)C(C)(C)c2ccccc21)OC(=O)CCCCCCCCCCCCCCCCC [Cy5-DSPE],accumulation and spreading in glioma,[1],almost complete absence
same,tissues with the highest dye amount,[2],highest in the tumor and kidney
same,dye amount in tumor and organ extracts over time,"[2]; tumors, livers, spleens, kidneys, 1 h, 24 h",dropped over time in all the organs
same,extravasation and distribution in tumor,[3],mostly confined to blood vessels
